In patent US20070010514A1, “Non-steroidal progesterone receptor modulators” (priority 2005, published 2007):
pEC50, pIC50: −log10 of the molar value.

Key:
[1] = biological target: T1, PR-B progesterone receptor (Homo sapiens, UniProt P06401); experiment: Antagonism at the PR-B progesterone receptor (transactivation assay); format: cell-based; details: for pIC50: read-out: Antagonistic Activity IC50
T1 sequence (P06401 1-933): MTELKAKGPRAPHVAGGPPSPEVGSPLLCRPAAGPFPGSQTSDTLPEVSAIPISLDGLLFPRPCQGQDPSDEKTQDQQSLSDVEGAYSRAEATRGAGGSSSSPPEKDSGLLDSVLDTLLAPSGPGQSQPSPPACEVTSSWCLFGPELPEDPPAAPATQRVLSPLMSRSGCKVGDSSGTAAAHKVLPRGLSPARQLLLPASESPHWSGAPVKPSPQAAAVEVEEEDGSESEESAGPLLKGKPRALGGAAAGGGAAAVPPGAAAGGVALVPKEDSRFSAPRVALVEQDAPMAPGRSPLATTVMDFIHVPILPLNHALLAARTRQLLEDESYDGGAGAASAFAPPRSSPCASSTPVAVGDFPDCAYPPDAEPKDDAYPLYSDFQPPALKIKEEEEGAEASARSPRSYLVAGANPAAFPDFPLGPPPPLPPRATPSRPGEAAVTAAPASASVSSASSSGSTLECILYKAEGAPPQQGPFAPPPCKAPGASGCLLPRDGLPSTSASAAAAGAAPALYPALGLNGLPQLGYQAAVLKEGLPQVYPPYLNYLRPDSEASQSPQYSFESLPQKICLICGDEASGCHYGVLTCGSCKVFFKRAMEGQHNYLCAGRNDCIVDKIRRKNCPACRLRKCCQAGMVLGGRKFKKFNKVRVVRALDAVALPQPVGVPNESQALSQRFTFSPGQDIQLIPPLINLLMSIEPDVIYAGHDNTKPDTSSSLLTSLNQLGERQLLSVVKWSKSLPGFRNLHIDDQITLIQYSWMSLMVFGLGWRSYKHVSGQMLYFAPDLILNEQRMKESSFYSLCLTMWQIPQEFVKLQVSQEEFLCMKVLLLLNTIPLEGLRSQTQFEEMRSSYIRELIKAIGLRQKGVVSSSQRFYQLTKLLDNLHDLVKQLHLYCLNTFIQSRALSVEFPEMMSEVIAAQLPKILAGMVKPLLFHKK
Experimental: Antagonism at the PR-B Progesterone Receptor
The transactivation assay is carried out as described in WO 02/054064.

[2] = biological target: T1, PR-B progesterone receptor; experiment: Agonism on the PR-B progesterone receptor (transactivation assay); format: cell-based; details: for pEC50: read-out: Agonistic Activity EC50
Experimental: Agonism on the PR-B Progesterone Receptor
The transactivation assay is carried out as described in Fuhrmann et al. (Fuhrmann U., Hess-Stump H., Cleve A., Neef G., Schwede W., Hoffmann J., Fritzemeier K.-H., Chwalisz K., Journal of Medicinal Chem, 43, 26, 2000, 5010-5016).

SMILES | Antagonistic Activity Efficacy [1] [%] | pIC50 [1] | Agonistic Activity Efficacy [2] [%] | pEC50 [2]
Cc1noc(=O)c2ccc(NC(=O)C(O)(C#Cc3ccccc3)CC(C)(C)c3ccccc3)cc12 (racemic) [Example 16, rac-6-[2-Hydroxy-4-methyl-4-phenyl-2-(phenylethynyl)pentanoylamino]-4-methyl-2,3-benzoxazin-1-one] | 82 | 9.15 | 13 | 9.30
Cc1noc(=O)c2ccc(NC(=O)C(O)(C#Cc3ccccc3)CC3(c4ccccc4Cl)CCCC3)cc12 (racemic) [Example 5, rac-6-{2-[(2-Chlorophenyl)cyclopentyl]methyl-2-hydroxy-4-phenylbut-3-ynoylamino}-4-methyl-2,3-benzoxazin-1-one] | 86 | 9.70 | 10 | 9.70
Cc1noc(=O)c2ccc(NC(=O)C(O)(C#Cc3ccccc3C(F)(F)F)CC(C)(C)c3ccccc3)cc12 (racemic) [Example 24, rac-6-[2-Hydroxy-4-methyl-4-phenyl-2-[(2-trifluoromethylphenyl)ethynyl]-pentanoylamino]-4-methyl-2,3-benzoxazin-1-one] | 100 | 8.70 | 0 | 
COc1ccc(C#CC(O)(CC(C)(C)c2ccccc2)C(=O)Nc2ccc3c(=O)onc(C)c3c2)cc1 (racemic) [Example 18, rac-6-[2-Hydroxy-2-[(4-methoxyphenyl)ethynyl]-4-methyl-4-phenylpentanoylamino]-4-methyl-2,3-benzoxazin-1-one] | 89 | 9.70 | 8 | 
C#CC(O)(CC(C)(C)c1ccccc1)C(=O)Nc1ccc2c(=O)onc(C)c2c1 (racemic) [Example 14, rac-6-[2-Ethynyl-2-hydroxy-4-methyl-4-phenylpentanoylamino]-4-methyl-2,3-benzoxazin-1-one] | 53 | 8.22 | 35 | 8.15
Cc1cc(C)c(C#CC(O)(CC(C)(C)c2ccccc2)C(=O)Nc2ccc3c(=O)onc(C)c3c2)cc1C (racemic) [Example 35, rac-6-[2-[(2,4,5-Trimethylphenyl)ethynyl]-2-hydroxy-4-methyl-4-phenylpentanoylamino]-4-methyl-2,3-benzoxazin-1-one] | 100 | 8.70 | 0 | 
Cc1ccc(C#CC(O)(CC(C)(C)c2ccccc2)C(=O)Nc2ccc3c(=O)onc(C)c3c2)cc1 (single isomer, unassigned; (-)) [Example 17b, (−)-6-[2-Hydroxy-4-methyl-2-[(4-methylphenyl)ethynyl]-4-phenylpentanoylamino]-4-methyl-2,3-benzoxazin-1-one] | 88 | 10.52 | 7 | 
